These are literature values, as cited in patent US20220251564A1, “p16INK4a INHIBITOR FOR PREVENTING OR TREATING HUNTINGTON'S DISEASE” (SORBONNE UNIVERSITE, priority 2019, published 2022).

The series concerns neurons. The conditions noted are these: in vitro.

Structures are written as SMILES.

`COc1cc([C@@H]2c3cc4c(cc3[C@@H](O[C@@H]3O[C@@H]5CO[C@@H](C)O[C@H]5[C@H](O)[C@H]3O)[C@H]3COC(=O)[C@H]23)OCO4)cc(OC)c1O` [Etoposide]: the activation of neurons entry is on record as “activate neurons in vitro”.
